The nature of data set [1]: Stability in human Caco-2 homogenates after 2 hrs. The data set is classed as ADME. As to conditions: Caco-2 cell homogenates, read-out: Stability; call rule not given here.
Data set [2] can be described thus: Apparent permeability across human Caco-2 cells. In kind it is ADME, cell-based.
Data set [3] is described as follows: Stability in human Caco-2 homogenates after 1 hr. The data set is classed as ADME. Conditions: Caco-2 cell homogenates, read-out: Stability.
For data set [4], the system named is Caco-2. As to the kind of experiment: Stability in human Caco-2 homogenates after 10 mins. The data set is classed as ADME. As to conditions: caco-2, 10 min.
For data set [5], the system named is Caco-2. Put plainly: Stability in human Caco-2 homogenates after 20 mins. As to conditions: caco-2, 20 min. In kind it is ADME.

Where a SMILES comes first, the peptide text is derived from it. [ ]: non-standard residue; d: D form. ξ: configuration not given here. ξGly(dodecyl) = CCCCCCCCCCCCC(N)C(=O)O; ξGly(decyl) = CCCCCCCCCCC(N)C(=O)O; ξGly(octyl) = CCCCCCCCC(N)C(=O)O; ξAoc(2) = CCCCCCC(N)C(=O)O

On to `CCCCCCCCCCC(NC(=O)[C@@H](N)CCC(=O)O)C(=O)N[C@@H](Cc1c[nH]c2ccccc12)C(N)=O` (some centres not stated), for which the remaining at 2 h in data set [1] stood at 40%. In data set [2], the apparent permeability coefficient (Papp) was 4.66 ×10⁻⁶ cm/s.
The corresponding values for `CCCCCCCCC(N)C(=O)N[C@@H](CCC(=O)O)C(=O)N[C@@H](Cc1c[nH]c2ccccc12)C(N)=O` (some centres not stated) are 40% and 1.55 ×10⁻⁶ cm/s.
For the molecule `CCCCCCCCCCC(N)C(=O)N[C@@H](CCC(=O)O)C(=O)N[C@@H](Cc1c[nH]c2ccccc12)C(N)=O` (some centres not stated), the remaining at 2 h in data set [1] was 65%. In addition, the Papp in data set [2] was 9.26 ×10⁻⁶ cm/s. In data set [3], the remaining at 1 h stood at 75%.
In the case of `CCCCCCCCCCCCC(N)C(=O)N[C@@H](CCC(=O)O)C(=O)N[C@@H](Cc1c[nH]c2ccccc12)C(N)=O` (some centres not stated), in data set [1], the remaining at 2 h came to 65%. The Papp in data set [2] worked out at 1.02 ×10⁻⁶ cm/s. Besides, in data set [3], the remaining at 1 h was 75%.
As to `CCCCCCCCC(NC(=O)[C@@H](N)CCC(=O)O)C(=O)N[C@@H](Cc1c[nH]c2ccccc12)C(N)=O` (some centres not stated), in data set [1], the remaining at 2 h is 40%. Moreover, the Papp in data set [2] is 3.99 ×10⁻⁶ cm/s. The molecule further gave a Stability in the data set with Caco-2 [4] of 15%.
In the case of `NC(=O)[C@H](Cc1c[nH]c2ccccc12)NC(=O)[C@@H](N)CCC(=O)O` (H-Glu-Trp-NH2), the remaining at 2 h in data set [1] was determined as 35%. Besides, the apparent permeability coefficient (Papp) in data set [2] was found to be 7.76 ×10⁻⁶ cm/s.
Taken in the same sequence, the figures for `CCCCCCC(NC(=O)[C@@H](N)CCC(=O)O)C(=O)N[C@@H](Cc1c[nH]c2ccccc12)C(N)=O` (some centres not stated) (H-Glu-[ξAoc(2)]-Trp-NH2) were 40% and 3.83 ×10⁻⁶ cm/s.
Taken in the same sequence, the figures for `CCCCCCC(N)C(=O)N[C@@H](CCC(=O)O)C(=O)N[C@@H](Cc1c[nH]c2ccccc12)C(N)=O` (stereo partly drawn) (H-[ξAoc(2)]-Glu-Trp-NH2) were 40% and 4.84 ×10⁻⁶ cm/s.
With `CCCCCCC(N)C(=O)NC(CCCCCC)C(=O)N[C@@H](CCC(=O)O)C(=O)N[C@@H](Cc1c[nH]c2ccccc12)C(N)=O` (some centres not stated) (H-[ξAoc(2)][ξAoc(2)]EW-NH2), the remaining at 2 h in data set [1] worked out at 90%. Further, the Papp in data set [2] turned out to be 8.32 ×10⁻⁶ cm/s. The Activity result with Caco-2 [5] is “Not Active”.
The corresponding values for `CCCCCCCCCCC(N)C(=O)NC(CCCCCCCCCC)C(=O)N[C@@H](CCC(=O)O)C(=O)N[C@@H](Cc1c[nH]c2ccccc12)C(N)=O` (some centres not stated) (H-[ξGly(decyl)][ξGly(decyl)]EW-NH2) are 90%, 3.09 ×10⁻⁶ cm/s and “Not Active”.
The corresponding values for `CCCCCCCCCCCCC(N)C(=O)NC(CCCCCCCCCCCC)C(=O)N[C@@H](CCC(=O)O)C(=O)N[C@@H](Cc1c[nH]c2ccccc12)C(N)=O` (some centres not stated) (H-[ξGly(dodecyl)][ξGly(dodecyl)]EW-NH2) are 90%, 2.77 ×10⁻⁶ cm/s and “Not Active”.
With `CCCCCCCCC(N)C(=O)NC(CCCCCCCC)C(=O)N[C@@H](CCC(=O)O)C(=O)N[C@@H](Cc1c[nH]c2ccccc12)C(N)=O` (some centres not stated) (H-[ξGly(octyl)][ξGly(octyl)]EW-NH2), in data set [1], the remaining at 2 h stood at 40%. Moreover, the Papp in data set [2] came out at 1.79 ×10⁻⁶ cm/s. Besides, in the data set with Caco-2 [5], the Activity result was “Not Active”. For the same molecule, the Stability in the data set on Caco-2 [4] was determined as 15%.

In general, Papp refers to the rate of passage across a membrane or cell layer, normalised by area and donor concentration.

Source of the values: ChEMBL document CHEMBL1140474, “Enhancement of oral drug absorption-effect of lipid conjugation on the enzymatic stability and intestinal permeability of l-Glu-l-Trp-NH(2)” (Bioorg Med Chem, 2007).
